In the supplement of paper PMC8967900:

What was measured:
Experiment in all cases: selective drug sensitivity score (sDSS, relative to normal bone marrow) (sDSS (score)); higher = more potent and effective on the cell line relative to normal bone marrow cells
Settings in all cases: 72 h
MHH-CALL-3 = tested on: MHH-CALL-3
MOLT-16 = tested on: MOLT-16
HAL-01 = tested on: HAL-01
NALM-6 = tested on: NALM-6
COG-LL-317 = tested on: COG-LL-317
REH = tested on: REH
SUP-B15 = tested on: SUP-B15
NALM-16 = tested on: NALM-16
HPB-ALL = tested on: HPB-ALL
697 = tested on: 697
COG-LL-402h = tested on: COG-LL-402h
KOPN-8 = tested on: KOPN-8
380 = tested on: 380
NALL-1 = tested on: NALL-1
RPMI-8402 = tested on: RPMI-8402
KASUMI-9 = tested on: KASUMI-9
TANOUE = tested on: TANOUE
MOLT-14 = tested on: MOLT-14
JURKAT = tested on: JURKAT
MHH-CALL-2 = tested on: MHH-CALL-2
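Note: ALL cell lines in 384-well plates, five doses spanning 10,000-fold, each plate scaled between vehicle and 100 µmol/L benzalkonium chloride controls, sDSS an adapted area-under-curve metric.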

CNC(=O)c1ccc(-c2cnc3ncc(Cc4ccc5ncccc5c4)n3n2)cc1F [Capmatinib] (top concentration 1000 nM)
selective drug sensitivity score (MHH-CALL-3): -0.06 | selective drug sensitivity score (MOLT-16): 0.04 | selective drug sensitivity score (HAL-01): 2.34 | selective drug sensitivity score (NALM-6): 0.24 | selective drug sensitivity score (COG-LL-317): 0.34 | selective drug sensitivity score (REH): -0.06 | selective drug sensitivity score (SUP-B15): -0.06 | selective drug sensitivity score (NALM-16): -0.06 | selective drug sensitivity score (HPB-ALL): -0.06 | selective drug sensitivity score 697: -0.06 | selective drug sensitivity score (COG-LL-402h): 0.74 | selective drug sensitivity score (KOPN-8): -0.06 | selective drug sensitivity score 380: 2.04 | selective drug sensitivity score (NALL-1): -0.06 | selective drug sensitivity score (RPMI-8402): -0.06 | selective drug sensitivity score (KASUMI-9): -0.06 | selective drug sensitivity score (TANOUE): 0.44 | selective drug sensitivity score (MOLT-14): -0.06 | selective drug sensitivity score (JURKAT): -0.06 | selective drug sensitivity score (MHH-CALL-2): -0.06

COc1cc2c(Oc3ccc4[nH]c(C)cc4c3F)ncnc2cc1OCCCN1CCCC1 [Cediranib] (top concentration 1000 nM)
selective drug sensitivity score (MHH-CALL-3): 0 | selective drug sensitivity score (MOLT-16): 0 | selective drug sensitivity score (HAL-01): 5.7 | selective drug sensitivity score (NALM-6): 0 | selective drug sensitivity score (COG-LL-317): 0.1 | selective drug sensitivity score (REH): 0 | selective drug sensitivity score (SUP-B15): 0 | selective drug sensitivity score (NALM-16): 0 | selective drug sensitivity score (HPB-ALL): 0 | selective drug sensitivity score 697: 0.9 | selective drug sensitivity score (COG-LL-402h): 0 | selective drug sensitivity score (KOPN-8): 0 | selective drug sensitivity score 380: 0 | selective drug sensitivity score (NALL-1): 0 | selective drug sensitivity score (RPMI-8402): 0 | selective drug sensitivity score (KASUMI-9): 3.6 | selective drug sensitivity score (TANOUE): 0 | selective drug sensitivity score (MOLT-14): 0 | selective drug sensitivity score (JURKAT): 0 | selective drug sensitivity score (MHH-CALL-2): 7.2

CCN(CC)CCCC(C)Nc1ccnc2cc(Cl)ccc12 (stereo not given) [Chloroquine] (top concentration 100000 nM)
selective drug sensitivity score (MHH-CALL-3): -6.04 | selective drug sensitivity score (MOLT-16): -3.14 | selective drug sensitivity score (HAL-01): 0.36 | selective drug sensitivity score (NALM-6): -2.74 | selective drug sensitivity score (COG-LL-317): 0.36 | selective drug sensitivity score (REH): 0.96 | selective drug sensitivity score (SUP-B15): -4.14 | selective drug sensitivity score (NALM-16): -5.24 | selective drug sensitivity score (HPB-ALL): -6.64 | selective drug sensitivity score 697: -2.14 | selective drug sensitivity score (COG-LL-402h): -3.94 | selective drug sensitivity score (KOPN-8): -1.14 | selective drug sensitivity score 380: -4.94 | selective drug sensitivity score (NALL-1): -8.84 | selective drug sensitivity score (RPMI-8402): -1.74 | selective drug sensitivity score (KASUMI-9): -1.94 | selective drug sensitivity score (TANOUE): -6.04 | selective drug sensitivity score (MOLT-14): -2.84 | selective drug sensitivity score (JURKAT): -5.04 | selective drug sensitivity score (MHH-CALL-2): 1.06

C[C@@H](Oc1cc(-c2cnn(C3CCNCC3)c2)cnc1N)c1c(Cl)ccc(F)c1Cl [Crizotinib] (top concentration 1000 nM)
selective drug sensitivity score (MHH-CALL-3): -0.54 | selective drug sensitivity score (MOLT-16): -0.54 | selective drug sensitivity score (HAL-01): -0.54 | selective drug sensitivity score (NALM-6): 0.96 | selective drug sensitivity score (COG-LL-317): -0.54 | selective drug sensitivity score (REH): -0.54 | selective drug sensitivity score (SUP-B15): 3.86 | selective drug sensitivity score (NALM-16): -0.54 | selective drug sensitivity score (HPB-ALL): -0.54 | selective drug sensitivity score 697: -0.24 | selective drug sensitivity score (COG-LL-402h): -0.54 | selective drug sensitivity score (KOPN-8): -0.54 | selective drug sensitivity score 380: -0.54 | selective drug sensitivity score (NALL-1): -0.54 | selective drug sensitivity score (RPMI-8402): -0.54 | selective drug sensitivity score (KASUMI-9): -0.54 | selective drug sensitivity score (TANOUE): -0.54 | selective drug sensitivity score (MOLT-14): -0.54 | selective drug sensitivity score (JURKAT): -0.54 | selective drug sensitivity score (MHH-CALL-2): -0.54

COc1cc2ncnc(Nc3ccc(F)c(Cl)c3)c2cc1NC(=O)/C=C/CN1CCCCC1 [Dacomitinib] (top concentration 1000 nM)
selective drug sensitivity score (MHH-CALL-3): 2.06 | selective drug sensitivity score (MOLT-16): -1.04 | selective drug sensitivity score (HAL-01): 2.66 | selective drug sensitivity score (NALM-6): -1.64 | selective drug sensitivity score (COG-LL-317): -0.44 | selective drug sensitivity score (REH): -1.04 | selective drug sensitivity score (SUP-B15): -1.34 | selective drug sensitivity score (NALM-16): -1.54 | selective drug sensitivity score (HPB-ALL): -1.54 | selective drug sensitivity score 697: -0.34 | selective drug sensitivity score (COG-LL-402h): 0.96 | selective drug sensitivity score (KOPN-8): -0.34 | selective drug sensitivity score 380: -1.64 | selective drug sensitivity score (NALL-1): -1.64 | selective drug sensitivity score (RPMI-8402): -0.34 | selective drug sensitivity score (KASUMI-9): 0.96 | selective drug sensitivity score (TANOUE): -1.64 | selective drug sensitivity score (MOLT-14): 0.86 | selective drug sensitivity score (JURKAT): -1.64 | selective drug sensitivity score (MHH-CALL-2): 2.06

CCN(CC)CCN(Cc1ccc(-c2ccc(C(F)(F)F)cc2)cc1)C(=O)Cn1c(SCc2ccc(F)cc2)nc(=O)c2c1CCC2 [Darapladib] (top concentration 1000 nM)
selective drug sensitivity score (MHH-CALL-3): -1.42 | selective drug sensitivity score (MOLT-16): 3.28 | selective drug sensitivity score (HAL-01): 0.58 | selective drug sensitivity score (NALM-6): -1.42 | selective drug sensitivity score (COG-LL-317): -1.42 | selective drug sensitivity score (REH): -1.42 | selective drug sensitivity score (SUP-B15): -1.42 | selective drug sensitivity score (NALM-16): -0.52 | selective drug sensitivity score (HPB-ALL): -1.42 | selective drug sensitivity score 697: -1.42 | selective drug sensitivity score (COG-LL-402h): -1.42 | selective drug sensitivity score (KOPN-8): 7.18 | selective drug sensitivity score 380: -1.42 | selective drug sensitivity score (NALL-1): 6.18 | selective drug sensitivity score (RPMI-8402): -1.32 | selective drug sensitivity score (KASUMI-9): -1.32 | selective drug sensitivity score (TANOUE): -1.42 | selective drug sensitivity score (MOLT-14): -1.42 | selective drug sensitivity score (JURKAT): -1.42 | selective drug sensitivity score (MHH-CALL-2): 3.68

C[C@@H]1C[C@H]2[C@@H]3CCC4=CC(=O)C=C[C@]4(C)[C@@]3(F)[C@@H](O)C[C@]2(C)[C@@]1(O)C(=O)CO [Dexamethasone] (top concentration 10000 nM)
selective drug sensitivity score (MHH-CALL-3): 40.3 | selective drug sensitivity score (MOLT-16): 9.68 | selective drug sensitivity score (HAL-01): -1.42 | selective drug sensitivity score (NALM-6): 30.8 | selective drug sensitivity score (COG-LL-317): 11.3 | selective drug sensitivity score (REH): -1.52 | selective drug sensitivity score (SUP-B15): 43 | selective drug sensitivity score (NALM-16): -1.52 | selective drug sensitivity score (HPB-ALL): 3.18 | selective drug sensitivity score 697: 32.2 | selective drug sensitivity score (COG-LL-402h): 29.3 | selective drug sensitivity score (KOPN-8): 33.9 | selective drug sensitivity score 380: 32.2 | selective drug sensitivity score (NALL-1): 34.1 | selective drug sensitivity score (RPMI-8402): 3.18 | selective drug sensitivity score (KASUMI-9): 1.78 | selective drug sensitivity score (TANOUE): -1.42 | selective drug sensitivity score (MOLT-14): -1.52 | selective drug sensitivity score (JURKAT): -1.52 | selective drug sensitivity score (MHH-CALL-2): 28.9

Cc1cc(C)c(CNC(=O)c2cc(-c3ccc(CN4CCOCC4)cc3)cc3c2cnn3C2CCCC2)c(=O)[nH]1 [EPZ-5687] (top concentration 10000 nM)
selective drug sensitivity score (MHH-CALL-3): -0.36 | selective drug sensitivity score (MOLT-16): -0.36 | selective drug sensitivity score (HAL-01): 3.24 | selective drug sensitivity score (NALM-6): -0.36 | selective drug sensitivity score (COG-LL-317): -0.36 | selective drug sensitivity score (REH): 6.64 | selective drug sensitivity score (SUP-B15): -0.36 | selective drug sensitivity score (NALM-16): -0.36 | selective drug sensitivity score (HPB-ALL): -0.36 | selective drug sensitivity score 697: -0.36 | selective drug sensitivity score (COG-LL-402h): -0.36 | selective drug sensitivity score (KOPN-8): -0.36 | selective drug sensitivity score 380: -0.36 | selective drug sensitivity score (NALL-1): 5.34 | selective drug sensitivity score (RPMI-8402): -0.16 | selective drug sensitivity score (KASUMI-9): 3.14 | selective drug sensitivity score (TANOUE): -0.36 | selective drug sensitivity score (MOLT-14): -0.36 | selective drug sensitivity score (JURKAT): -0.36 | selective drug sensitivity score (MHH-CALL-2): 5.14

C=C1C[C@@H]2CC[C@@]34C[C@H]5O[C@H]6[C@@H](O3)[C@H]3O[C@H](CC[C@@H]3O[C@H]6[C@H]5O4)CC(=O)C[C@@H]3[C@@H](OC)[C@@H](C[C@H](O)CN)O[C@H]3C[C@H]3O[C@@H](CC[C@@H]1O2)C[C@@H](C)C3=C [Eribulin] (top concentration 1000 nM)
selective drug sensitivity score (MHH-CALL-3): 13.1 | selective drug sensitivity score (MOLT-16): 28.6 | selective drug sensitivity score (HAL-01): 4.6 | selective drug sensitivity score (NALM-6): 16 | selective drug sensitivity score (COG-LL-317): 26.3 | selective drug sensitivity score (REH): 18.9 | selective drug sensitivity score (SUP-B15): 25.7 | selective drug sensitivity score (NALM-16): 17.1 | selective drug sensitivity score (HPB-ALL): 13.2 | selective drug sensitivity score 697: 19.5 | selective drug sensitivity score (COG-LL-402h): 17.3 | selective drug sensitivity score (KOPN-8): 27 | selective drug sensitivity score 380: 24.2 | selective drug sensitivity score (NALL-1): 15.8 | selective drug sensitivity score (RPMI-8402): 22.1 | selective drug sensitivity score (KASUMI-9): 24 | selective drug sensitivity score (TANOUE): -8.6 | selective drug sensitivity score (MOLT-14): 25.2 | selective drug sensitivity score (JURKAT): 26.9 | selective drug sensitivity score (MHH-CALL-2): 15.8
